Data published in ChEMBL document CHEMBL6109085, “Furazanopyrazine-based novel promising anticancer agents interfering with the eicosanoid biosynthesis pathways by dual mPGES-1 and sEH inhibition” (Eur J Med Chem, 2025).

Columns and labels:
[1] = Microsomal stability in human liver microsomes assessed as half-life preincubated for 5 mins followed by NADPH and UDP-GlcUA addition and measured after 30 to 120 mins by UHPLC analysis; type: ADME, Microsome; settings: time 35-125 min
[2] = Microsomal stability in human liver microsomes assessed as intrinsic clearance preincubated for 5 mins followed by NADPH and UDP-GlcUA addition and measured after 30 to 120 mins by UHPLC analysis; type: ADME, Microsome; settings: time 35-125 min, read-out: CLH
HCT-116 = assay: Antiproliferative activity against human HCT-116 cells assessed as reduction in cell survival index incubated for 48 hrs by MTT assay; settings: HCT-116, 48 h
[3] = Cytotoxicity against human HaCaT cells assessed as reduction in cell survival index incubated for 48 hrs by MTT assay; type: toxicity, cell-based
[4] = target: T1, Bifunctional epoxide hydrolase 2 (Homo sapiens) (UniProt P34913); assay: Inhibition of recombinant human sEH extracted from baculovirus infected Sf9 cells using PHOME as substrate at 10 uM preincubated for 15 mins followed by PHOME substrate addition and measured after 60 mins by fluorescence based analysis relative to control; settings: time 75.0 min
T1 sequence (whole entry): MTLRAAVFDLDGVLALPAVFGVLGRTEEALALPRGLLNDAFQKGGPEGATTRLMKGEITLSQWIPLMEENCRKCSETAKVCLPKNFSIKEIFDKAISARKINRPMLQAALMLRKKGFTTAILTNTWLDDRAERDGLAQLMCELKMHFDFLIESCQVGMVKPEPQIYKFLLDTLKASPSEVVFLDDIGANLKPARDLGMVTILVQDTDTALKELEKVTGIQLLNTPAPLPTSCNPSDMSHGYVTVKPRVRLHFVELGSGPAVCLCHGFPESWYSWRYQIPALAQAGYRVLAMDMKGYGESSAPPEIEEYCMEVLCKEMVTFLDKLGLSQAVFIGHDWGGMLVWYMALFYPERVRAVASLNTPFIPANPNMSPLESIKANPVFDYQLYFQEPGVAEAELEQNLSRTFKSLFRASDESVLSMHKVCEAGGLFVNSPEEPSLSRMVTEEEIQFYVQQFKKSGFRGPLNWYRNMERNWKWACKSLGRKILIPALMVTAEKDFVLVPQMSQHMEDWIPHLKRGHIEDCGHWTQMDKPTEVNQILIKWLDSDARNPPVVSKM

| half-life [1] | microsomal CLint [2] | inhibition [4] | SMILES | IC50 (HCT-116) | IC50 at 48 h [3] |
| --- | --- | --- | --- | --- | --- |
| 5.43 h | 4.25 µL/min/mg |  | O=C1c2ccc(OCCCc3ccccc3)cc2-c2nc3nonc3nc21 | 6.4 µM | 28 µM |
| 2.74 h | 8.42 µL/min/mg |  | O=C1c2ccc(OCc3ccccc3)cc2-c2nc3nonc3nc21 |  |  |
| 0.075 h | 307 µL/min/mg | 48% | O=C(COc1ccc2c(c1)-c1nc3nonc3nc1C2=O)OCc1ccccc1 |  |  |

Second part, the compound before the results:

| SMILES | half-life [1] | microsomal CLint [2] | inhibition [4] | IC50 (HCT-116) | IC50 at 48 h [3] |
| --- | --- | --- | --- | --- | --- |
| O=C1c2ccc(OCCc3ccc(F)cc3)cc2-c2nc3nonc3nc21 | 0.715 h | 32.3 µL/min/mg |  |  |  |
| O=C1c2ccc(OCc3ccc(Br)cc3)cc2-c2nc3nonc3nc21 | 3.97 h | 5.82 µL/min/mg |  |  |  |
| O=C(Oc1ccc2c(c1)-c1nc3nonc3nc1C2=O)c1ccccc1 | 1.16 h | 19.9 µL/min/mg |  |  |  |
| O=C1c2ccc(OCCc3cccc(C(F)(F)F)c3)cc2-c2nc3nonc3nc21 | 2.65 h | 8.73 µL/min/mg |  | 8.3 µM | 17 µM |
